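Method: 48-hour compound exposure of cells in 96-well plates, five concentrations, linear interpolation of endpoints. GI50 is the concentration that inhibits growth by half. TGI: total growth inhibition.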
Experiments:
Experiment in all cases: inhibition of tumour cell growth, NCI panel, 48 h
COLO 205 colon = tested on: COLO 205 colon
A498 renal = tested on: A498 renal
SW-620 colon = tested on: SW-620 colon
PC-3 prostate = tested on: PC-3 prostate
SN12C renal = tested on: SN12C renal
M14 melanoma = tested on: M14 melanoma
NCI-H460 lung = tested on: NCI-H460 lung
TK-10 renal = tested on: TK-10 renal
SK-OV-3 ovarian = tested on: SK-OV-3 ovarian
CCRF-CEM leukemia = tested on: CCRF-CEM leukemia

| SMILES | GI50 (COLO 205 colon) [µM] | TGI (COLO 205 colon) [µM] | GI50 (A498 renal) [µM] | TGI (A498 renal) [µM] | GI50 (SW-620 colon) [µM] | TGI (SW-620 colon) [µM] | GI50 (PC-3 prostate) [µM] | TGI (PC-3 prostate) [µM] | GI50 (SN12C renal) [µM] | TGI (SN12C renal) [µM] | GI50 (M14 melanoma) [µM] | TGI (M14 melanoma) [µM] | GI50 (NCI-H460 lung) [µM] | TGI (NCI-H460 lung) [µM] | GI50 (TK-10 renal) [µM] | TGI (TK-10 renal) [µM] | GI50 (SK-OV-3 ovarian) [µM] | TGI (SK-OV-3 ovarian) [µM] | GI50 (CCRF-CEM leukemia) [µM] | TGI (CCRF-CEM leukemia) [µM] |
| --- | --- | --- | --- | --- | --- | --- | --- | --- | --- | --- | --- | --- | --- | --- | --- | --- | --- | --- | --- | --- |
| O=C1C(=O)c2cc([N+](=O)[O-])ccc2-c2ccccc21 | 1.94 | 3.49 | 12.5 | 25.1 | 1.54 | 2.98 | 1.97 | 3.72 | 1.66 | 3.05 | 1.97 | 3.5 | 1.78 | 3.35 | 1.77 | 3.19 | 1.76 | 3.14 | – | – |
| CCCCCCCCCCCCCOC(=O)c1c(C)[nH]c(/C=C2\N=C(c3ccc[nH]3)C=C2OC)c1C | 0.0583 | > 100 | 0.481 | 10.8 | 0.0204 | > 37.1 | 0.02 | > 100 | 0.156 | > 100 | 0.0178 | 0.0461 | < 0.017 | > 100 | 0.174 | 20 | 2.8 | 37.1 | 0.0303 | > 100 |
| Nc1nc(N)c2nc(CNc3ccc(C(=O)CC(CCC(=O)O)C(=O)O)cc3)cnc2n1 (stereo not given) | 5.77 | > 100 | 3.15 | > 100 | 0.0332 | > 100 | – | > 100 | 0.18 | > 100 | 0.202 | > 100 | 0.127 | > 100 | 0.385 | > 100 | – | > 100 | 0.0562 | > 100 |
| O=C(O)C1C2C=CC(O2)C1C(=O)Nc1ccccc1 (stereo not given) | – | > 100 | – | > 100 | – | > 100 | – | > 100 | – | > 100 | – | > 100 | – | – | – | > 100 | – | > 100 | – | > 100 |
| CC1=CC2=C(OCO1)C(=O)c1ccccc1C2=O | – | 11.5 | – | 29.5 | – | 21.6 | – | > 100 | – | 11.4 | – | 8.97 | – | 19.1 | – | > 81.3 | – | 48.9 | – | 45.7 |
| C=C1C(=O)O[C@@H]2[C@H]1CC[C@H](C)[C@]1(O)CCC(=O)[C@@]21C | – | > 10 | – | – | – | > 10 | – | > 10 | – | > 10 | – | – | – | – | – | > 10 | – | > 10 | – | > 10 |
| CCN1C(=O)N(CC)C2C1NN=c1s/c(=C3\C(=O)N(CCC(C)C)c4ccccc43)c(=O)n12 (stereo not given) | – | – | 0.477 | 2.59 | 1.08 | > 100 | 2.91 | > 100 | 2.01 | 4.99 | – | – | – | – | 9.44 | 71.7 | 2.53 | 18 | 2.66 | > 100 |
| CC1(C)SC2C(C(=O)O)N=C(Cc3ccccc3)N2C1C(=O)O (stereo not given) | – | > 100 | – | > 100 | – | > 100 | – | > 100 | – | > 100 | – | > 100 | – | > 100 | – | 40.5 | – | > 100 | – | – |

From PubChem BioAssay (NCI)
